Laboratory results as given in publication PMC7743948, “D-LL-31 enhances biofilm-eradicating effect of currently used antibiotics for chronic rhinosinusitis and its immunomodulatory activity on human lung epithelial cells” (PLoS ONE, 2020).
“And” between values parts separate entries of the source, which are not always exact repeats. Equal values may be shown once. Read-outs that look alike come from different tables or passages of the source. Ends that are not written are not given here.

Key:
K. pneumoniae [1] = assay: Disc antimicrobial susceptibility test (BD BBL Sensi-Disc); format: cell-based, Klebsiella pneumoniae; set-up: key: Susceptible; Intermediate; Resistant; conditions: 24 h
Protocol: (§1) Supplementary file pone.0243315.s001.docx: S1 Table Antimicrobial susceptibility test results of reference strain and representative bacteria used from CRS patients. Bacterial suspensions were incubated with antibiotics for 24 h and the results were interpreted according to BD BBL™ Sensi-Disc™ antimicrobial susceptibility test discs. (DOCX) Click here for additional data file.
(§2) Antibiotics susceptibility testing was performed using BD BBL™ Sensi-Disc™ antimicrobial susceptibility test discs (Becton, Dickinson and Company, Franklin Lakes, NJ) and the results were interpreted according to the manufacturer's instructions.

S. epidermidis [2] = assay: as above; format: cell-based, Staphylococcus epidermidis; set-up: key: Susceptible; Intermediate; Resistant; conditions: 24 h
Protocol: as §1, §2

P. aeruginosa ATCC27853 = assay: as above; format: cell-based, Pseudomonas aeruginosa; set-up: key: Susceptible; Intermediate; Resistant; conditions: 24 h
Protocol: as §1, §2

P. aeruginosa [3] = assay: as above; format: cell-based, Pseudomonas aeruginosa; set-up: key: Susceptible; Intermediate; Resistant; conditions: 24 h
Protocol: as §1, §2

K. pneumoniae [4] = assay: Broth microdilution MIC/MBC of conventional antibiotics, planktonic form; format: cell-based, Klebsiella pneumoniae; conditions: for MBC: broth microdilution then plate count on MHA; for MIC: broth microdilution, MHB, 5 x 10^5 CFU/ml, 37 °C, 24 h, CLSI
Protocol: (§3) MICs and MBCs of conventional antibiotics were determined using a broth microdilution technique. […] Only P. aeruginosa was additionally tested for susceptibility to TOB (Sigma-Aldrich) (0.03–52 μM or 0.01–25 μg/ml). Bacterial suspensions (5 x 10^5 CFU/ml) were added to the microtiter plates, which were then incubated at 37 °C for 24 h. Antibiotic-free culture was used as a control. […] The results were confirmed using a microplate reader at OD620 (Sunrise™, TECAN, Australia). The plate count technique was further used to determine the MBC values on Mueller Hinton agar (MHA) (Himedia®). Each experiment was performed independently three times in triplicate.

S. epidermidis [5] = assay: as above; format: cell-based, Staphylococcus epidermidis; conditions: MHB, 5 x 10^5 CFU/ml, 37 °C, 24 h, CLSI
Protocol: as §3

[6] = system: all strains (bacteria isolated from CRS patients); assay: Broth microdilution susceptibility, statement for all strains; format: cell-based; conditions: planktonic form
Protocol: MICs and MBCs of conventional antibiotics were determined using a broth microdilution technique. […] Only P. aeruginosa was additionally tested for susceptibility to TOB (Sigma-Aldrich) (0.03–52 μM or 0.01–25 μg/ml). Bacterial suspensions (5 x 10^5 CFU/ml) were added to the microtiter plates, which were then incubated at 37 °C for 24 h. Antibiotic-free culture was used as a control. After incubation, MIC values were observed according to the guidelines of the Clinical & Laboratory Standards Institute (CLSI). The results were confirmed using a microplate reader at OD620 (Sunrise™, TECAN, Australia). The plate count technique was further used to determine the MBC values on Mueller Hinton agar (MHA) (Himedia®). Each experiment was performed independently three times in triplicate.

K. pneumoniae biofilm [7] = assay: microbe, parasite or virus in culture
Protocol: (§4) The effects of both conventional antibiotics and AMPs against bacteria under biofilm-stimulating condition were determined using a transferable solid phase (TSP) pin lid, which resembles the ‘Calgary’ biofilm device as previously described with some modifications. Each strain (10^7 CFU/ml) was added to sterile 96-well plates (Nunclon™), then covered by a TSP pin lid (NUNC™, Roskilde, Denmark), and further incubated at 37 °C for 24 h. […] Additionally, the effect of TOB (2–836 μM or 1–391 μg/ml) against P. aeruginosa biofilm was also investigated. Then the plates were statically incubated at 37 °C for 24 h. A well free of antimicrobial agent was used as a control. After 24 h, bacterial survival was determined using the plate count technique on NA (Himedia®). The percentage killing of each antimicrobial agent was calculated using the formula [1 − (CFU sample/CFU control)] × 100% [15, 19]. […] Each experiment was performed independently three times in duplicate.

P. aeruginosa biofilm [8] = assay: microbe, parasite or virus in culture
Protocol: as §4

S. epidermidis biofilm [9] = assay: microbe, parasite or virus in culture
Protocol: as §4

K. pneumoniae biofilm [10] = assay: Checkerboard synergy of D-LL-31 with antibiotics on biofilm; format: cell-based, Klebsiella pneumoniae; conditions: Klebsiella pneumoniae, read-out: Antimicrobial agent in concentration of combination
Protocol: (§5) Bacterial viability in each interaction was determined using the plate count technique. The fractional inhibitory concentration index (FICI) values were calculated and interpreted in terms of synergism/antagonism as previously described. Each experiment was performed independently three times in duplicate.

S. epidermidis biofilm [11] = assay: as above; format: cell-based, Staphylococcus epidermidis; conditions: Staphylococcus epidermidis, read-out: Antimicrobial agent in concentration of combination
Protocol: as §5

P. aeruginosa biofilm [12] = assay: as above; format: cell-based, Pseudomonas aeruginosa
Protocol: as §5

[13] = system: S. epidermidis biofilm matrix; assay: Biofilm matrix reduction (AAA-model, CLSM, COMSTAT biomass); format: cell-based, Staphylococcus epidermidis; conditions: AMX alone at IC50 (33092 μM), 24 h, P < 0.05
Protocol: Briefly, 1.5 ml of each overnight culture (10^8 CFU/ml) was added to a 24-well tissue culture plate (Nunclon™). The plate was covered with a sterile stainless-steel lid containing glass coverslips and aerobically incubated at 37°C for 24 h. […] All tested conditions were incubated at 37°C for 24 h. A well free of antimicrobial agent was used as a control. Following incubation, biofilms were fixed with 2.5% glutaraldehyde (Sigma-Aldrich) at 25°C for 3 h. The fixed bacterial biofilms on glass coverslips were stained with 50 μg/ml Alexa Fluor® 488 (Invitrogen, Carlsbad, CA) for 30 min. This stain reacts with exopolysaccharide matrixes of the biofilm. The glass coverslips were then mounted with 80% glycerol and the stained cells were photographed using a confocal laser-scanning microscope (CLSM) (TCS SP8-Leica Microsystems, Wetzlar, Germany). […] Each experiment was performed independently three times in duplicate.

P. aeruginosa [14] = assay: Broth microdilution MIC/MBC of conventional antibiotics, planktonic form; format: cell-based, Pseudomonas aeruginosa; conditions: for MBC: broth microdilution then plate count on MHA, planktonic
Protocol: as §3

[15] = system: clinical isolate P. aeruginosa; assay: Killing of planktonic bacteria (CFU count); format: cell-based, Pseudomonas aeruginosa; conditions: 1–2 h
Protocol: (§6) A bacterial suspension without peptide served as a control. The samples were then serially diluted and cultivated on NA (Himedia®) and incubated for 24 h to allow colony counting. The percentage killing by each AMP was calculated using the formula [1 − (CFU sample/CFU control)] × 100% [15, 36]. Each experiment was performed independently three times in duplicate.

[16] = system: reference strain P. aeruginosa ATCC 27853; assay: Killing of planktonic bacteria (CFU count); format: cell-based, Pseudomonas aeruginosa
Protocol: as §6

[17] = highest concentration of AMX (68418 μM or 25000 μg/ml), 24 h biofilm, 24 h
[18] = Pseudomonas aeruginosa, 24 h, read-out: IC50 value

## CN(C)[C@@H]1C(O)=C(C(N)=O)C(=O)[C@@]2(O)C(O)=C3C(=O)c4c(O)cccc4[C@@](C)(O)[C@H]3C[C@@H]12 [TET, Tetracycline]
K. pneumoniae [1]
  antimicrobial susceptibility: I
S. epidermidis [2]
  antimicrobial susceptibility: S
P. aeruginosa ATCC27853
  antimicrobial susceptibility: S
P. aeruginosa [3]
  antimicrobial susceptibility: R

## CNC(C)C1CCC(N)C(OC2C(N)CC(N)C(OC3OCC(C)(O)C(NC)C3O)C2O)O1 (centres unmarked) [GEN, Gentamicin]
K. pneumoniae [1]
  antimicrobial susceptibility: I
S. epidermidis [2]
  antimicrobial susceptibility: S
P. aeruginosa ATCC27853
  antimicrobial susceptibility: S
P. aeruginosa [3]
  antimicrobial susceptibility: I

## CC[C@H]1OC(=O)[C@H](C)[C@@H](O[C@H]2C[C@@](C)(OC)[C@@H](O)[C@H](C)O2)[C@H](C)[C@@H](O[C@@H]2O[C@H](C)C[C@H](N(C)C)[C@H]2O)[C@](C)(O)C[C@@H](C)C(=O)[C@H](C)[C@@H](O)[C@]1(C)O [ERY, Erythromycin]
S. epidermidis [2]
  antimicrobial susceptibility: R

## CC1(C)S[C@@H]2[C@H](NC(=O)[C@H](N)c3ccc(O)cc3)C(=O)N2[C@H]1C(=O)O [AMX, amoxicillin]
K. pneumoniae [4]; Klebsiella pneumoniae, read-out: MBC
  MBC: 8.55 mM
K. pneumoniae [4]; Klebsiella pneumoniae, three independent experiments in triplicate, read-out: MIC
  MIC: 4.28 mM
K. pneumoniae [4]
  MBC: 3125 µg/mL
  MIC: 1562.5 µg/mL
S. epidermidis [5]
  MIC: 1562.5 µg/mL
S. epidermidis [5]; Staphylococcus epidermidis, read-out: MIC
  MIC: 4.28 mM
[6]
  susceptibility in words: Resistance
K. pneumoniae biofilm [7]; Klebsiella pneumoniae, 24 h, read-out: IC50 value
  IC50: 7.92 mM and 2900 µg/mL
K. pneumoniae biofilm [7]; biofilm
  IC50 of AMX higher than that of D-LL-31: ~13000 fold
K. pneumoniae biofilm [7]; [17]
  killing activity: 90%
P. aeruginosa biofilm [8]; [18]
  IC50: 45.2 mM and 16500 µg/mL
P. aeruginosa biofilm [8]; biofilm
  IC50 of AMX higher than that of D-LL-31: about 11000 fold
P. aeruginosa biofilm [8]; [17]
  killing activity: 70%
S. epidermidis biofilm [9]; Staphylococcus epidermidis, 24 h, read-out: IC50 value
  IC50: 33.1 mM and 12100 µg/mL
S. epidermidis biofilm [9]; biofilm
  IC50 of AMX higher than that of D-LL-31: ~66000 fold
S. epidermidis biofilm [9]; [17]
  killing activity: 75%
K. pneumoniae biofilm [10]; 24 h
  IC50: 495 µM
K. pneumoniae biofilm [10]
  IC50: 181 µg/mL
S. epidermidis biofilm [11]; 24 h
  IC50: 2070 µM
S. epidermidis biofilm [11]
  IC50: 756 µg/mL
P. aeruginosa biofilm [12]; Pseudomonas aeruginosa, 24 h; read-out: Antimicrobial agent in concentration of combination
  IC50: 2820 µM
P. aeruginosa biofilm [12]; Pseudomonas aeruginosa; read-out: Antimicrobial agent in concentration of combination
  IC50: 1030 µg/mL
[13]
  effect on biofilm biomass: significant effect

## LLGDFFRKSKEKIGKEFKRIVQRIKDFLRNL [LL-31]
K. pneumoniae biofilm [7]; biofilm, 24 h
  IC50: 0.7 µM
P. aeruginosa biofilm [8]; biofilm, 24 h
  IC50: 5.3 µM
S. epidermidis biofilm [9]; biofilm, 24 h
  IC50: 1.8 µM

## NC[C@H]1O[C@H](O[C@H]2[C@H](O)[C@@H](O[C@H]3O[C@H](CO)[C@@H](O)[C@H](N)[C@H]3O)[C@H](N)C[C@@H]2N)[C@H](O)[C@@H](O)[C@@H]1O [KAN, Kanamycin]
K. pneumoniae [1]
  antimicrobial susceptibility: S
S. epidermidis [2]
  antimicrobial susceptibility: S

## NC[C@H]1O[C@H](O[C@H]2[C@H](O)[C@@H](O[C@H]3O[C@H](CO)[C@@H](O)[C@H](N)[C@H]3O)[C@H](N)C[C@@H]2N)[C@H](N)C[C@@H]1O [TOB, tobramycin]
P. aeruginosa [14]; Pseudomonas aeruginosa, read-out: MBC
  MBC: 0.001 mM
P. aeruginosa [14]
  MBC: 0.4 µg/mL
P. aeruginosa [14]; planktonic form
  susceptibility in words: susceptible
[15]; 1 and 5 μM
  killing effect: ≥ 92%
[15]; planktonic
  concentration required to kill all bacterial cells: 10 µM
[16]; 1 μM, 1 h
  killing effect: ≥ 98%
[16]; 5 and 10 μM, within 1 h
  killing of bacterial cells, in words: killed all bacterial cells
P. aeruginosa biofilm [8]; 24 h biofilm, 24 h
  sensitivity of biofilm, in words: sensitive
P. aeruginosa biofilm [8]; [18]
  IC50: 4 µM and 2 µg/mL
P. aeruginosa biofilm [12]; D-LL-31 combined with TOB; IC50 alone compared with concentration of combination
  Fold decrease of IC50 values: 16 fold
P. aeruginosa biofilm [12]; Pseudomonas aeruginosa, 24 h, read-out: Antimicrobial agent in concentration of combination
  IC50: 0.2 µM
P. aeruginosa biofilm [12]; Pseudomonas aeruginosa, read-out: Antimicrobial agent in concentration of combination
  IC50: 0.1 µg/mL
K. pneumoniae [1]
  antimicrobial susceptibility: S
S. epidermidis [2]
  antimicrobial susceptibility: S
P. aeruginosa ATCC27853
  antimicrobial susceptibility: S
P. aeruginosa [3]
  antimicrobial susceptibility: S

## Penicillin
S. epidermidis [2]
  antimicrobial susceptibility: S

## CC1(C)S[C@@H]2[C@H](NC(=O)[C@H](N)c3ccccc3)C(=O)N2[C@H]1C(=O)O [AMP, Ampicillin]
K. pneumoniae [1]
  antimicrobial susceptibility: R
S. epidermidis [2]
  antimicrobial susceptibility: R

## O=C(N[C@H](CO)[C@H](O)c1ccc([N+](=O)[O-])cc1)C(Cl)Cl [CHL, Chloramphenicol]
K. pneumoniae [1]
  antimicrobial susceptibility: S
S. epidermidis [2]
  antimicrobial susceptibility: S
P. aeruginosa ATCC27853
  antimicrobial susceptibility: S
P. aeruginosa [3]
  antimicrobial susceptibility: R

## CO/N=C(\C(=O)N[C@@H]1C(=O)N2C(C(=O)O)=C(CSc3nc(=O)c(=O)[nH]n3C)CS[C@H]12)c1csc(N)n1 [CRO, Ceftriaxone]
K. pneumoniae [1]
  antimicrobial susceptibility: S
S. epidermidis [2]
  antimicrobial susceptibility: S
P. aeruginosa ATCC27853
  antimicrobial susceptibility: S
P. aeruginosa [3]
  antimicrobial susceptibility: R

## Cc1onc(-c2ccccc2)c1C(=O)N[C@@H]1C(=O)N2[C@@H]1SC(C)(C)[C@@H]2C(=O)O [OXA, Oxacillin]
S. epidermidis [2]
  antimicrobial susceptibility: S
